Laboratory results taken from patent publication US7405038B1, “Stable cell lines resistant to apoptosis and nutrient stress and methods of making same” (Boyce Thompson Institute for Plant Research, Inc., priority 2000, dated 2008).
Numbered stars: 1 amine (or outer) side, 2 acyl side, 3 side chain; on linkers, the order of the positions; unused ones are H or OH. Bridge positions count the residues as written; N and C are the ends. Square brackets hold non-standard residues; d marks the D form. Peptide text beside a SMILES is read from it. I, II: the chains in the order shown. Actinocin(9to1) = Cc1c2oc3c(C)ccc(C(=O)[*:1])c3nc-2c(C(=O)[*:2])c(N)c1=O; NMeV = CN[C@H](C(=O)O)C(C)C; Sar = CNCC(=O)O

Columns and labels:
[1] = system: Sf9 cells; assay: Resistance to induction of apoptosis by actinomycin D: cell survival; assay type: cell-based, Spodoptera frugiperda
Description: (§1) The cells were examined for resistance to induction of apoptosis by actinomycin D, as well as survival under conditions of nutrient deprivation. Sf9 cells or stably transfected lines Sf9^P35AcV5−1 and Sf9^P35AcV5−3 were incubated in medium containing 0.1 μg/ml actinomycin D for 1 hour, then placed in TNMFH medium.
(§2) Increasing doses of actinomycin D were tested to further examine the degree of resistance to this inducer of apoptosis. Sf9 or stably transfected cells expressing P35 were incubated in a range of concentrations of actinomycin D (0.01 to 0.5 μg/ml) for one hour, then placed in TNMFH and scored for cell survival after 1-4 days (Table 2).

[2] = system: Sf9P35AcV5-1 cells; assay: as above; assay type: cell-based, Spodoptera frugiperda
Description: as §1, §2

[3] = 0.01 μg/ml actinomycin D for one hour, Day 1
[4] = 0.01 μg/ml actinomycin D for one hour, Day 2
[5] = 0.01 μg/ml actinomycin D for one hour, Day 3
[6] = 0.01 μg/ml actinomycin D for one hour, Day 4
[7] = 0.025 μg/ml actinomycin D for one hour, Day 1
[8] = 0.025 μg/ml actinomycin D for one hour, Day 2
[9] = 0.025 μg/ml actinomycin D for one hour, Day 3
[10] = 0.025 μg/ml actinomycin D for one hour, Day 4
[11] = 0.05 μg/ml actinomycin D for one hour, Day 1
[12] = 0.05 μg/ml actinomycin D for one hour, Day 2
[13] = 0.05 μg/ml actinomycin D for one hour, Day 3
[14] = 0.05 μg/ml actinomycin D for one hour, Day 4
[15] = 0.075 μg/ml actinomycin D for one hour, Day 1
[16] = 0.075 μg/ml actinomycin D for one hour, Day 2
[17] = 0.075 μg/ml actinomycin D for one hour, Day 3
[18] = 0.075 μg/ml actinomycin D for one hour, Day 4
[19] = 0.1 μg/ml actinomycin D for 1 hour, then TNMFH medium, after three days
[20] = 0.1 μg/ml actinomycin D for one hour, Day 1

`Cc1c2oc3c(C)ccc(C(=O)N[C@@H]4C(=O)N[C@H](C(C)C)C(=O)N5CCC[C@H]5C(=O)N(C)CC(=O)N(C)[C@@H](C(C)C)C(=O)O[C@@H]4C)c3nc-2c(C(=O)N[C@@H]2C(=O)N[C@H](C(C)C)C(=O)N3CCC[C@H]3C(=O)N(C)CC(=O)N(C)[C@@H](C(C)C)C(=O)O[C@@H]2C)c(N)c1=O` [Actinomycin D, actinomycin D] (I: T[dV]P[Sar][NMeV] / II: T[dV]P[Sar][NMeV]; ester I:1-I:C, II:1-II:C; linker I:N-II:N via Actinocin(9to1)) was tested, and the “Sf9 Cell Survival (Percentage)” value [1, 3] was 100 Percentage, the “Sf9 Cell Survival (Percentage)” value [1, 4] was 100 Percentage and the “Sf9 Cell Survival (Percentage)” value [1, 5] was 100 Percentage. The “Sf9 Cell Survival (Percentage)” value [1, 6] was 100 Percentage, the “Sf9 Cell Survival (Percentage)” value [1, 7] was 100 Percentage and the “Sf9 Cell Survival (Percentage)” value [1, 8] was 100 Percentage. For the same molecule, the “Sf9 Cell Survival (Percentage)” value [1, 9] was 100 Percentage, the “Sf9 Cell Survival (Percentage)” value [1, 10] was 100 Percentage and the “Sf9 Cell Survival (Percentage)” value [1, 11] was 100 Percentage. The “Sf9 Cell Survival (Percentage)” value [1, 12] was 100 Percentage, the “Sf9 Cell Survival (Percentage)” value [1, 13] was 100 Percentage and the “Sf9 Cell Survival (Percentage)” value [1, 14] was 100 Percentage. The “survival of Sf9 cells” value ([1]; 0.075 μg/ml actinomycin D) was 80-95%, the “Sf9 Cell Survival (Percentage)” value [1, 15] was 95 Percentage and the “Sf9 Cell Survival (Percentage)” value [1, 16] was 90 Percentage. For the same molecule, the “Sf9 Cell Survival (Percentage)” value [1, 17] was 83 Percentage, the “Sf9 Cell Survival (Percentage)” value [1, 18] was 83 Percentage and the “survival of Sf9 cells” value ([1]; 0.1 μg/ml actinomycin D) was ≤ 5%. The “survival of Sf9 cells” value [1, 19] was “all Sf9 cells died”, the “Sf9 Cell Survival (Percentage)” value [1, 20] was 13.7 Percentage and the “Sf9 Cell Survival (Percentage)” value ([1]; 0.1 μg/ml actinomycin D for one hour, Day 2) was 8.6 Percentage. For the same molecule, the “Sf9 Cell Survival (Percentage)” value ([1]; 0.1 μg/ml actinomycin D for one hour, Day 3) was 3.7 Percentage, the “Sf9 Cell Survival (Percentage)” value ([1]; 0.1 μg/ml actinomycin D for one hour, Day 4) was 0 Percentage and the “Sf9 Cell Survival (Percentage)” value ([1]; 0.25 μg/ml actinomycin D for one hour, Day 1) was 4.5 Percentage. The “Sf9 Cell Survival (Percentage)” value ([1]; 0.25 μg/ml actinomycin D for one hour, Day 2) was 3.6 Percentage, the “Sf9 Cell Survival (Percentage)” value ([1]; 0.25 μg/ml actinomycin D for one hour, Day 3) was 0 Percentage and the “Sf9 Cell Survival (Percentage)” value ([1]; 0.25 μg/ml actinomycin D for one hour, Day 4) was 0 Percentage. For the same molecule, the “Sf9 Cell Survival (Percentage)” value ([1]; 0.5 μg/ml actinomycin D for one hour, Day 1) was 0 Percentage, the “Sf9 Cell Survival (Percentage)” value ([1]; 0.5 μg/ml actinomycin D for one hour, Day 2) was 0 Percentage and the “Sf9 Cell Survival (Percentage)” value ([1]; 0.5 μg/ml actinomycin D for one hour, Day 3) was 0 Percentage. For the same molecule, the “Sf9 Cell Survival (Percentage)” value ([1]; 0.5 μg/ml actinomycin D for one hour, Day 4) was 0 Percentage, the “Sf9P35AcV5-1 Cell Survival (Percentage)” value [2, 3] was 100 Percentage and the “Sf9P35AcV5-1 Cell Survival (Percentage)” value [2, 4] was 100 Percentage. For the same molecule, the “Sf9P35AcV5-1 Cell Survival (Percentage)” value [2, 5] was 100 Percentage, the “Sf9P35AcV5-1 Cell Survival (Percentage)” value [2, 6] was 100 Percentage and the “Sf9P35AcV5-1 Cell Survival (Percentage)” value [2, 7] was 100 Percentage. For the same molecule, the “Sf9P35AcV5-1 Cell Survival (Percentage)” value [2, 8] was 100 Percentage, the “Sf9P35AcV5-1 Cell Survival (Percentage)” value [2, 9] was 100 Percentage and the “Sf9P35AcV5-1 Cell Survival (Percentage)” value [2, 10] was 100 Percentage. The “Sf9P35AcV5-1 Cell Survival (Percentage)” value [2, 11] was 100 Percentage, the “Sf9P35AcV5-1 Cell Survival (Percentage)” value [2, 12] was 100 Percentage and the “Sf9P35AcV5-1 Cell Survival (Percentage)” value [2, 13] was 100 Percentage. The “Sf9P35AcV5-1 Cell Survival (Percentage)” value [2, 14] was 100 Percentage, the “Sf9P35AcV5-1 Cell Survival (Percentage)” value [2, 15] was 100 Percentage and the “Sf9P35AcV5-1 Cell Survival (Percentage)” value [2, 16] was 100 Percentage. The “Sf9P35AcV5-1 Cell Survival (Percentage)” value [2, 17] was 100 Percentage, the “Sf9P35AcV5-1 Cell Survival (Percentage)” value [2, 18] was 100 Percentage and the “survival of Sf9P35AcV5-1 cells” value [2, 19] was “survived”. The “Sf9P35AcV5-1 Cell Survival (Percentage)” value [2, 20] was 100 Percentage.
